# Source: patent EP4759148A1, “ADJUSTMENT OF CIRCADIAN RHYTHM” (MEIJI CO., LTD, priority 2023, dated 2025)
# Key:
# per2 reporter cells = assay: circadian rhythm assay (luciferase reporter assay) using per2 reporter cells; format: cell-based, human; settings: 5 mM fumaric acid
# Method: Referring to the "Cell-based circadian assays" described in the article by H. Oike et al. (NPL 1), a circadian rhythm assay (luciferase reporter assay) using per2 reporter cells was performed to evaluate the action of fumaric acid on circadian rhythms.
# U-2OS cells were transfected with a vector prepared by incorporating the per2 promoter region into a NanoLuc (registered trademark) luciferase vector by using transfection reagent 1 according to a standard method. After about 24 hours, the medium was replaced, and dexamethasone was added at a final concentration of 100 nM to synchronize the cells. After two hours, 1% substrate (Endurazine) was added, and the luminescence intensity of luciferase was measured every 30 minutes using a plate reader equipped with CO2 control and temperature control.
# After 25 days, formed colonies were collected and seeded in a 96-well plate (1 × 10^3 cells/well). After three days, the luminescence intensity of luciferase was measured every 60 minutes using a plate reader with CO^2 control and temperature control, in the same manner as described above.
# Subsequently, cell lines with minimal variation in circadian rhythm cycle and stable periodicity were selected. These selected cell lines, referred to as "per2 reporter cells" were used in the following experiments.
# The prepared per2 reporter cells were seeded in a 96-well plate at a density of 5 × 10^3 cells/well. The medium used was high-glucose medium 1 supplemented with 10% fetal bovine serum (FBS), 1% penicillin-streptomycin, and hygromycin, and the cells were cultured at 37°C under 5% CO2 conditions.
# After two days from culture, 100 nM dexamethasone was added, and the cells were treated for 2 hours, followed by adding a 1% substrate (Endurazine). Subsequently, the luminescence intensity of luciferase was measured every 12 minutes. For the measurement, high-glucose medium 2 supplemented with 5% FBS and 1% penicillin-streptomycin was used.
# Subsequently, fumaric acid was added to the measurement medium to achieve a final concentration of 5 mM, and the luminescence intensity of luciferase was measured over time using a long-term real-time luminescence measurement system for cultured cells (WSL-1565, Kronos HT) to evaluate changes in circadian rhythm. For a control, the luminescence intensity of luciferase in per2 reporter cells cultured in measurement medium without fumaric acid was measured over time in the same manner.
# In the luminescence intensity rhythms, valleys were represented by T and peaks by P, and they were labeled as P1, T1, P2, and T2 in order of appearance. Since P1 was unstable in rhythm, the circadian rhythm of per2 reporter cells was evaluated based on the phases of the valleys (T1 and T2) and peak (P2) after T1.
# GPR41 gene = assay: induction of GPR41 gene expression in Caco-2 cells (real-time PCR); format: cell-based, human; settings: 5 mM fumaric acid, 60 minutes, differentiated Caco-2 cells; Fig. 2
# Method: Caco-2 cells were seeded in a 24-well plate at 2 × 10^5 cells/well. After 3 weeks of differentiation induction, 5 mM fumaric acid was added, and cells were collected 60 minutes later. RNA was extracted, and GPR41 gene expression levels were measured by real-time PCR.
# [1] = fumaric acid-added cells versus control
smiles,measurement,setting,value
"O=C(O)/C=C/C(=O)O [Fumaric Acid, fumaric acid]","circadian rhythm cycle, T2-T1","per2 reporter cells; calculated from the phase difference between T1 and T2, control 29.6",26.4 h
same,"phase of circadian rhythm, T1","per2 reporter cells; first valley (T1) of luciferase luminescence rhythm, U-2OS per2 reporter cells, control 22.4",22.2 h
same,"Difference in Cycle, T2-T1",per2 reporter cells; [1],-3.2 h
same,"Difference in Phase, P2",per2 reporter cells; [1],-0.6 h
same,"Difference in Phase, T1",per2 reporter cells; [1],-0.2 h
same,"Difference in Phase, T2",per2 reporter cells; [1],-3.4 h
same,"phase of circadian rhythm, P2","per2 reporter cells; peak P2 of luciferase luminescence rhythm, control 34.8",34.2 h
same,"phase of circadian rhythm, T2","per2 reporter cells; second valley (T2) of luciferase luminescence rhythm, control 52.0",48.6 h
same,expression level of the GPR41 gene,GPR41 gene,increased
